# “And” between values parts separate entries of the source, which are not always exact repeats. Identical values can stand only once. Counter-ions that a name gives are not always drawn. Like-named read-outs stand apart in the source and are kept apart here.
# How the values were obtained:
# human OPRM1 (μ, MOR) [1] = target: T1, human OPRM1 (μ, MOR) (Homo sapiens, UniProt P35372); assay: cell-based; details: for Emax: OPRM1, read-out: cAMP Emax; for EC50: PathHunter human OPRM1 Arrestin CHO-K1 cell line, read-out: cAMP EC50
# T1 construct: host or cells: CHO-K1
# T1 sequence (P35372 whole entry): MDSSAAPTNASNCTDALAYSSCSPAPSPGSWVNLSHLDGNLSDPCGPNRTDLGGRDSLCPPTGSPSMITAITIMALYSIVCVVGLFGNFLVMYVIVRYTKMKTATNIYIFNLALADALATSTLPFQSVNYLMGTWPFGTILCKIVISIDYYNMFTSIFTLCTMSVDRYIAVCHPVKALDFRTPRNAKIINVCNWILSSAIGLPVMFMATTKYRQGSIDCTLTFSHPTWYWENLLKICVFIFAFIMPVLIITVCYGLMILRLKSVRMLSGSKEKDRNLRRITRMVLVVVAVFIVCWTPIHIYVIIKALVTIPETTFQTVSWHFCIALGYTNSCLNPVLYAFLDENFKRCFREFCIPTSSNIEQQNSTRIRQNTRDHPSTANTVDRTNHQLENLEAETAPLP
# Experimental: G-protein signaling was measured via second messenger cAMP modulation. Detection of cAMP modulation was accomplished in the PathHunter human OPRM1 (μ, MOR) Arrestin CHO-K1 cell line using the Dynamic2 cAMP Kit from Cisbio.
# human OPRM1 (μ, MOR) [2] = target: T1, human OPRM1 (μ, MOR); assay: cell-based; details: for Emax: OPRM1, read-out: β-Arrestin Emax; for EC50: PathHunter human OPRM1 Arrestin CHO-K1 cell line, read-out: β-Arrestin EC50
# Experimental: The Discoverx PathHunter® β-Arrestin assay is used to measure β-arrestin-2 activity. The technology is based on Enzyme Fragment Complementation (EFC) with β-galactosidase (β-Gal) as the reporter. […] EA is fused to Q-arrestin-2, and ED is fused to the C-terminus of the GPCR of interest. When a ligand binds and the GPCR is activated, Q-arrestin-2 is recruited to the receptor resulting in an ED/EA complementation, restoring f-Gal activity, which is measured using chemiluminescence. For this assay, the PathHunter human OPRM1 (μ, MOR) Arrestin CHO-K1 cell line was used.
# human OPRM1 (μ, MOR) [3] = target: T1, human OPRM1 (μ, MOR); assay type: cell-based; details: for ΔRA of compound: relative activity from EC50 and Emax of β-arrestin vs cAMP, lower RA = more G-protein biased
# Experimental: In certain embodiments, the ability of a compound to activate G-protein or β-arrestin is not an on/off switch for a given pathway, but rather a continuous function. To capture this, each compound is measured for activity in cell assays that are linked to β-arrestin recruitment and G-protein signaling. By comparing the activity between these two measures (accounting for both EC50 and maximal response reached, Emax) a relative activity (RA) value is determined.
# In the case of MOR it is desirable to have high activation of the G-protein pathway while reducing activation of β-arrestin. In the case of the formula above, this means a lower RA.
Compound,"Emax (human OPRM1 (μ, MOR) [1]) [%]","EC50 (human OPRM1 (μ, MOR) [1])","Emax (human OPRM1 (μ, MOR) [2]) [%]","EC50 (human OPRM1 (μ, MOR) [2])","Bias Factor (ΔRA of compound relative to ΔRA of DAMGO) × 10 (human OPRM1 (μ, MOR) [3])","ΔRA of compound (human OPRM1 (μ, MOR) [3])","β-Arrestin Emax (human OPRM1 (μ, MOR) [2]) [%]","cAMP Emax (human OPRM1 (μ, MOR) [1]) [%]","cAMP Emax (human OPRM1 (μ, MOR) [1]; hydrochloride)","β-Arrestin Emax (human OPRM1 (μ, MOR) [2]; hydrochloride)","Bias Factor (ΔRA of compound relative to ΔRA of DAMGO) × 10 (human OPRM1 (μ, MOR) [3]; hydrochloride)","ΔRA of compound (human OPRM1 (μ, MOR) [3]; hydrochloride)"
"CN(C)C(CNC(=O)NC1CCCc2ccccc21)c1ccsc1 (stereo not drawn) [Compound 11a, 1-(2-(Dimethylamino)-2-(thiophen-3-yl)ethyl)-3-(1,2,3,4-tetrahydronaphthalen-1-yl)urea hydrochloride]",94.3,< 1 nM,112,0.021 µM,2.32,−1.24,,,,,,
"CN(C)C(CNC(=O)N1Cc2ccc(O)cc2C1)c1ccc(O)cc1 (stereo not drawn) [Compound 24, N-(2-(dimethylamino)-2-(4-hydroxyphenyl)ethyl)-5-hydroxyisoindoline-2-carboxamide hydrobromide]",< 10,> 100000 nM,< 1,> 100 µM,<−14.83,<−2.96,,,,,,
"CN(C)C(CNC(=O)N1Cc2ccccc2C1)c1ccccc1 (single isomer, unassigned) [Compound 57]",89.4,72 nM,,> 100 µM,<−14.83,<−2.96,<1,,,,,
COc1ccc(C(CNC(=O)N2CC[C@H](c3ccccc3)C2)N(C)C)cc1 (stereo partly drawn) [Compound 43],54.2,1720 nM,< 1,> 100 µM,<−14.83,<−2.96,,,,,,
"CN(C)C(CNC(=O)N1Cc2cccc(F)c2C1)c1ccsc1 (stereo not drawn) [Compound 3a, N-(2-(Dimethylamino)-2-(thiophen-3-yl)ethyl)-4-fluoroisoindoline-2-carboxamide hydrochloride]",94.2,14 nM,21.9,0.31 µM,−5.07,−1.99,,,,,,
CNC(CNC(=O)N1Cc2cccc(F)c2C1)c1ccsc1 (stereo not drawn) [Compound 80],103,41 nM,,1.4 µM,−6.64,−2.14,25.2,,,,,
"CN(C)C(CNC(=O)NC1CCc2ccccc2C1)c1ccsc1 (stereo not drawn) [Compound 10a, 1-(2-(Dimethylamino)-2-(thiophen-3-yl)ethyl)-3-(1,2,3,4-tetrahydronaphthalen-2-yl)urea hydrochloride]",85.5,4 nM,3.33,> 100 µM,<−14.83,<−2.96,,,,,,
"CN(C)C(CNC(=O)N1Cc2ccccc2C1)c1ccccc1 (single isomer, unassigned) [Compound 58]",,132 nM,,1.89 µM,−1.66,−1.65,35.2,109.1,,,,
"CN(C)C(CNC(=O)N1Cc2ccc(F)cc2C1)c1ccsc1 (single isomer, unassigned) [2a-ent-(+), (+)—N-(2-(Dimethylamino)-2-(thiophen-3-yl)ethyl)-5-fluoroisoindoline-2-carboxamide hydrochloride]",,18 nM and 58 nM,,1.08 µM and 1.01 µM,,,,,"99.5, 95.4%","6.57, 13.7%",−9.24,−2.40
"CN(C)C(CNC(=O)NC1CCc2ccccc2C1)c1ccccc1 (stereo not drawn) [Compound 19a, 1-(2-(Dimethylamino)-2-phenylethyl)-3-(1,2,3,4-tetrahydronaphthalen-2-yl)urea hydrochloride]",86.1,32 nM,2.34,> 100 µM,<−14.83,<−2.96,,,,,,
"CN(C)C(CNC(=O)N1Cc2ccccc2C1)c1ccc(F)cc1Cl (stereo not drawn) [Compound 14a, N-(2-(2-Chloro-4-fluorophenyl)-2-(dimethylamino)ethyl)isoindoline-2-carboxamide hydrochloride]",102,56 nM,61.2,3.96 µM,−5.91,−2.07,,,,,,
CN(C)C1(CNC(=O)N2Cc3ccc(F)cc3C2)CCCCC1 [Compound 46],109,522 nM,13.6,10.1 µM,−7.08,−2.19,,,,,,
CN(C)C(CNC(=O)N(C)[C@@H]1CCCc2ccccc21)c1ccsc1 (stereo partly drawn) [Compound 45],101,276 nM,8.1,> 100 µM,<−14.83,<−2.96,,,,,,
CN(C)C(CNC(=O)N1CCCc2ccc(O)cc21)c1ccsc1 (stereo not drawn) [Compound 49],97,998 nM,< 1,> 100 µM,<−14.83,<−2.96,,,,,,
"CN(C)C(CNC(=O)N1Cc2ccc(O)cc2C1)c1ccsc1 (stereo not drawn) [Compound 22, N-(2-(Dimethylamino)-2-(thiophen-3-yl)ethyl)-5-hydroxyisoindoline-2-carboxamide hydrobromide]",16.3,322 nM,< 1,> 100 µM,<−14.83,<−2.96,,,,,,
"COc1ccc(C(CNC(=O)N2Cc3ccccc3C2)N(C)C)cc1 (stereo not drawn) [Compound 15a, N-(2-(Dimethylamino)-2-(4-methoxyphenyl)ethyl)isoindoline-2-carboxamide hydrochloride]",108,15 nM,44.2,1.37 µM,−8.71,−2.35,,,,,,
CN(C)C(CNC(=O)NC1CCCc2c(O)cccc21)c1ccsc1 (stereo not drawn) [Compound 59],108,6 nM,61,0.16 µM,−1.95,−1.67,,,,,,
CN(C)C(CNC(=O)N1CCCc2cc(F)ccc21)c1ccccc1 (stereo not drawn) [Compound 70a],90.3,512 nM,5.3,11 µM,−10.82,−2.56,,,,,,
COc1ccc(C(CNC(=O)N2CC[C@@H](c3ccccc3)C2)N(C)C)cc1 (stereo partly drawn) [Compound 42],21.9,7430 nM,< 1,> 100 µM,<−14.83,<−2.96,,,,,,
"CN(C)C(CNC(=O)N1CCCc2cc(F)ccc21)c1ccsc1 (stereo not drawn) [Compound 7a, N-(2-(dimethylamino)-2-(thiophen-3-yl)ethyl)-6-fluoro-3,4-dihydroquinoline-1(2H)-carboxamide hydrochloride]",92.1,407 nM,< 1,> 100 µM,<−14.83,<−2.96,,,,,,
"CNC(CNC(=O)N1Cc2ccccc2C1)c1ccccc1 (single isomer, unassigned; (-)) [Compound 38-ent-A, (−)-N-(2-(Methylamino)-2-phenylethyl)isoindoline-2-carboxamide]",81.6,379 nM,3.7,> 100 µM,<−14.83,<−2.96,,,,,,
"CN(C)C(CNC(=O)N(C)C1CCCc2ccccc21)c1ccsc1 (stereo not drawn) [Compound 13a, 3-(2-(Dimethylamino)-2-(thiophen-3-yl)ethyl)-1-methyl-1-(1,2,3,4-tetrahydronaphthalen-1-yl)urea hydrochloride]",95.3,68 nM,11.3,1.68 µM,−8.39,−2.3,,,,,,
"CN(C)C(CNC(=O)N1CCCc2ccc(F)cc21)c1ccsc1 (stereo not drawn) [Compound 8a, N-(2-(dimethylamino)-2-(thiophen-3-yl)ethyl)-7-fluoro-3,4-dihydroquinoline-1(2H)-carboxamide]",86.9,730 nM,6.18,> 100 µM,<−14.83,<−2.96,,,,,,
"CNC(CNC(=O)N1Cc2ccc(F)cc2C1)c1ccsc1 (stereo not drawn) [Compound 35, 5-Fluoro-N-(2-(methylamino)-2-(thiophen-3-yl)ethyl)isoindoline-2-carboxamide]",26.4,1170 nM,< 1,> 100 µM,<−14.83,<−2.96,,,,,,

# Source: patent publication US20220315567A1 (priority 2016, published 2022)
